Experimental data from patent publication US20060069132A1, “Azolecarboxamide herbicides” (priority 2004, published 2006).

Assays:
wheat = test: Test B postemergence herbicide test; assay type: in vivo, Triticum aestivum; set-up: key to Wheat plant response rating: 0 = no effect, 100 = complete control; conditions: scale 0 (no effect) to 100 (complete control)
Summary of the method: (§1)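 Visual ratings, 0 (no effect) to 100 (complete control), made versus controls after 13–15 d greenhouse. Paddy plants treated at 2-leaf stage; postemergence plants at 1- to 4-leaf stage, 2–18 cm tall.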

blackgrass = test: Test B postemergence herbicide test; assay type: in vivo, Alopecurus myosuroides; conditions: scale 0 (no effect) to 100 (complete control)
Summary of the method: (§2)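 Formulated test chemicals went onto postemergence plants measuring 2 to 18 cm, at one to four leaves. For the paddy assay, species had reached two leaves. Scoring took place 13–15 days later by eye, relative to untreated plants, using 0 for no effect up to 100 for full control.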

ducksalad = test: Test B flooded paddy test; assay type: in vivo, Heteranthera limosa; conditions: 1000 g ai/ha, visual rating, scale 0 to 100 (0 no effect, 100 complete control), 13 to 15 days
Summary of the method: as §2

giant foxtail = test: Test B pre-/postemergence herbicide test; assay type: in vivo, Setaria faberi
Summary of the method: (§3)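 Plants compared with untreated controls 13–15 days post-treatment and given a visual 0–100 injury score. Applications: preemergence to seeds; postemergence at 1- to 4-leaf (2–18 cm); paddy species flooded, 2-leaf stage. Vehicle non-phytotoxic, surfactant included.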

large crabgrass = test: Test B pre-/postemergence herbicide test; assay type: in vivo, Digitaria sanguinalis
Summary of the method: as §3

cocklebur = test: Test B pre-/postemergence herbicide test; assay type: in vivo, Xanthium strumarium
Summary of the method: as §3

Surinam grass = test: Test B pre-/postemergence herbicide test; assay type: in vivo, Urochloa decumbens
Summary of the method: as §3

wild oat = test: Test B postemergence herbicide test; assay type: in vivo, Avena fatua; conditions: scale 0 (no effect) to 100 (complete control)
Summary of the method: as §1

velvetleaf = test: Test B pre-/postemergence herbicide test; assay type: in vivo, Abutilon theophrasti
Summary of the method: as §3

rice = test: Test B flooded paddy test; assay type: in vivo, Oryza sativa; conditions: 1000 g ai/ha, visual rating, scale 0 to 100 (0 no effect, 100 complete control), 13 to 15 days
Summary of the method: as §2

corn = test: Test B pre-/postemergence herbicide test; assay type: in vivo, Zea mays
Summary of the method: as §3

pigweed = test: Test B pre-/postemergence herbicide test; assay type: in vivo, Amaranthus retroflexus
Summary of the method: as §3

[1] = test system: small flower umbrella sedge; test: Test B flooded paddy test; assay type: in vivo, Cyperus difformis; conditions: 1000 g ai/ha, visual rating, scale 0 to 100 (0 no effect, 100 complete control), 13 to 15 days
Summary of the method: as §2

barnyardgrass [2] = test: Test B pre-/postemergence herbicide test; assay type: in vivo, Echinochloa crus-galli
Summary of the method: as §3

barnyardgrass [3] = test: Test B flooded paddy test; assay type: in vivo, Echinochloa crus-galli; conditions: 1000 g ai/ha, visual rating, scale 0 to 100 (0 no effect, 100 complete control), 13 to 15 days
Summary of the method: as §2

morningglory = test: Test B pre-/postemergence herbicide test; assay type: in vivo, Ipomoea coccinea
Summary of the method: as §3

[4] = Postemergence, 500 g ai/ha, visual rating after 13 to 15 days
[5] = postemergence, 125 g ai/ha, visual rating
[6] = Postemergence, 500 g ai/ha, visual rating after 13 to 15 days, scale 0 (no effect) to 100 (complete control)
[7] = Preemergence, 500 g ai/ha, scale 0 to 100
[8] = postemergence, 125 g ai/ha, visual rating, scale 0 (no effect) to 100 (complete control)
[9] = preemergence, 125 g ai/ha, 0 to 100 scale, 0 is no effect, 100 is complete control

## C#CCn1nc(C(C)(C)C)cc1C(=O)Nc1cccc(C(=O)NCC)c1 [Compound 50]
wheat; [4]
  Plant response rating, Wheat: 30
wheat; [5]
  Wheat plant response rating: 30
blackgrass; [4]
  Plant response rating, Blackgrass: 30
blackgrass; [5]
  Blackgrass plant response rating: 20
ducksalad
  Ducksalad plant response rating: 70
Giant foxtail; [6]
  Plant response rating, Foxtail, Giant: 30
Giant foxtail; [7]
  Foxtail, Giant plant response rating: 100
Giant foxtail; [8]
  Foxtail, Giant plant response rating: 30
Giant foxtail; [9]
  Plant response rating, Foxtail, Giant: 20
Large crabgrass; [6]
  Plant response rating, Crabgrass, Large: 30
Large crabgrass; [7]
  Crabgrass, Large plant response rating: 90
Large crabgrass; [8]
  Crabgrass, Large plant response rating: 10
Large crabgrass; [9]
  Plant response rating, Crabgrass, Large: 30
cocklebur; [6]
  Plant response rating, Cocklebur: 90
cocklebur; [7]
  Cocklebur plant response rating: 0
cocklebur; [8]
  Cocklebur plant response rating: 90
cocklebur; [9]
  Plant response rating, Cocklebur: 0
Surinam grass; [6]
  Plant response rating, Surinam Grass: 40
Surinam grass; [7]
  Surinam Grass plant response rating: 50
Surinam grass; [8]
  Surinam Grass plant response rating: 30
Surinam grass; [9]
  Plant response rating, Surinam Grass: 20
Wild oat; [4]
  Plant response rating, Oat, Wild: 20
Wild oat; [5]
  Oat, Wild plant response rating: 20
velvetleaf; [6]
  Plant response rating, Velvetleaf: 60
velvetleaf; [7]
  Velvetleaf plant response rating: 50
velvetleaf; [8]
  Velvetleaf plant response rating: 40
velvetleaf; [9]
  Plant response rating, Velvetleaf: 20
rice
  Rice plant response rating: 60
corn; [6]
  Plant response rating, Corn: 40
corn; [7]
  Corn plant response rating: 10
corn; [8]
  Corn plant response rating: 30
corn; [9]
  Plant response rating, Corn: 0
pigweed; [6]
  Plant response rating, Pigweed: 100
pigweed; [7]
  Pigweed plant response rating: 100
pigweed; [8]
  Pigweed plant response rating: 80
pigweed; [9]
  Plant response rating, Pigweed: 100
[1]
  Sedge, Umbrella plant response rating: 80
Barnyardgrass [2]; [6]
  Plant response rating, Barnyardgrass: 70
Barnyardgrass [2]; [7]
  Barnyardgrass plant response rating: 80
Barnyardgrass [2]; [8]
  Barnyardgrass plant response rating: 50
Barnyardgrass [2]; [9]
  Plant response rating, Barnyardgrass: 40
Barnyardgrass [3]
  Barnyardgrass plant response rating: 70
morningglory; [6]
  Plant response rating, Morningglory: 70
morningglory; [7]
  Morningglory plant response rating: 40
morningglory; [8]
  Morningglory plant response rating: 70
morningglory; [9]
  Plant response rating, Morningglory: 10
